From ChEMBL document CHEMBL1201861, “Genomics of Drug Sensitity in Cancer screening data, Wellcome Trust Sanger Institute”

Experiments:
Capan-2 = assay: cells; assay type: functional, cell-based, Homo sapiens; conditions: Homo sapiens, Capan-2;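 note: Capan-2 cell growth inhibition, read out with a viability assay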
Description: SANGER: Inhibition of human Capan-2 cell growth in a cell viability assay.

Detroit 562 = assay: cells; assay type: functional, cell-based, Homo sapiens; conditions: Homo sapiens, Detroit 562;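 note: growth inhibition of human Detroit 562 cells, read out by a cell viability assay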
Description: SANGER: Inhibition of human Detroit562 cell growth in a cell viability assay.

EHEB = assay: cells; assay type: functional, cell-based, Homo sapiens; conditions: Homo sapiens, EHEB;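 note: growth inhibition of human EHEB cells, read out with a cell viability assay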
Description: SANGER: Inhibition of human EHEB cell growth in a cell viability assay.

GP5d = assay: cells; assay type: functional, cell-based, Homo sapiens; conditions: Homo sapiens, GP5d;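 note: growth inhibition of human GP5d cells, read out with a cell viability assay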
Description: SANGER: Inhibition of human GP5d cell growth in a cell viability assay.

HCC1599 = assay: cells; assay type: functional, cell-based, Homo sapiens; conditions: Homo sapiens, HCC1599;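 note: growth inhibition of HCC1599 cells, read out in a cell viability assay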
Description: SANGER: Inhibition of human HCC1599 cell growth in a cell viability assay.

HCC1806 = assay: cells; assay type: functional, cell-based, Homo sapiens; conditions: Homo sapiens, HCC1806;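 note: growth inhibition of the cancer cell line, determined with a cell viability assay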
Description: SANGER: Inhibition of human HCC1806 cell growth in a cell viability assay.

HCC38 = assay: cells; assay type: functional, cell-based, Homo sapiens; conditions: Homo sapiens, HCC38;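 note: cell viability assay on the human HCC38 cell line, with IC50 marking the concentration that inhibits cell growth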
Description: SANGER: Inhibition of human HCC38 cell growth in a cell viability assay.

HCT-15 = assay: cells; assay type: functional, cell-based, Homo sapiens; conditions: Homo sapiens, HCT-15;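 note: cell viability readout, IC50 reflecting suppression of HCT-15 cell growth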
Description: SANGER: Inhibition of human HCT-15 cell growth in a cell viability assay.

HT-1376 = assay: cells; assay type: functional, cell-based, Homo sapiens; conditions: Homo sapiens, HT-1376
Description: SANGER: Inhibition of human HT-1376 cell growth in a cell viability assay.

IM-9 = assay: SANGER: Inhibition of human IM-9 cell growth in a cell viability assay.; assay type: functional, cell-based; conditions: Homo sapiens, IM-9
IST-SL2 = assay: cells; assay type: functional, cell-based, Homo sapiens; conditions: Homo sapiens, IST-SL2;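 note: growth inhibition of human IST-SL2 cells, read out by a cell viability assay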
Description: SANGER: Inhibition of human IST-SL2 cell growth in a cell viability assay.

K052 = assay: cells; assay type: functional, cell-based, Homo sapiens; conditions: Homo sapiens, K052;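 note: Read-out from a cell viability assay, IC50 reflecting suppression of K052 cell growth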
Description: SANGER: Inhibition of human K052 cell growth in a cell viability assay.

KOSC-2 = assay: cells; assay type: functional, cell-based, Homo sapiens; conditions: Homo sapiens, KOSC-2;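 note: growth inhibition of KOSC-2 cells, read out by a cell viability assay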
Description: SANGER: Inhibition of human KOSC-2 cell growth in a cell viability assay.

KP-N-YN = assay: cells; assay type: functional, cell-based, Homo sapiens; conditions: Homo sapiens, KP-N-YN;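 note: growth inhibition of KP-N-YN cells, read out with a cell viability assay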
Description: SANGER: Inhibition of human KP-N-YN cell growth in a cell viability assay.

KYSE-150 cell line = assay: cells; assay type: functional, cell-based, Homo sapiens; conditions: Homo sapiens, KYSE-150;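 note: growth inhibition of human KYSE-150 cells, read out with a cell viability assay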
Description: SANGER: Inhibition of human KYSE-150 cell growth in a cell viability assay.

LP-1 = assay: cells; assay type: functional, cell-based, Homo sapiens; conditions: Homo sapiens, LP-1;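 note: growth inhibition of human LP-1 cells, with the read-out taken from a cell viability assay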
Description: SANGER: Inhibition of human LP-1 cell growth in a cell viability assay.

M059J = assay: cells; assay type: functional, cell-based, Homo sapiens; conditions: Homo sapiens, M059J;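 note: growth inhibition of M059J cells, read out with a cell viability assay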
Description: SANGER: Inhibition of human M059J cell growth in a cell viability assay.

MDA-MB-134-VI = assay: cells; assay type: functional, cell-based, Homo sapiens; conditions: Homo sapiens, MDA-MB-134-VI
Description: SANGER: Inhibition of human MDA-MB-134-VI cell growth in a cell viability assay.

ME-180 = assay: cells; assay type: functional, cell-based, Homo sapiens; conditions: Homo sapiens, ME-180;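 note: cell viability assay measuring growth inhibition of ME-180 cells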
Description: SANGER: Inhibition of human ME-180 cell growth in a cell viability assay.

MHH-ES-1 = assay: cells; assay type: functional, cell-based, Homo sapiens; conditions: Homo sapiens, MHH-ES-1
Description: SANGER: Inhibition of human MHH-ES-1 cell growth in a cell viability assay.

MIA PaCa-2 = assay: cells; assay type: functional, cell-based, Homo sapiens; conditions: Homo sapiens, MIA PaCa-2;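 note: growth inhibition of MIA PaCa-2 cells, read out with a cell viability assay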
Description: SANGER: Inhibition of human MIA-PaCa-2 cell growth in a cell viability assay.

NCI-H1792 = assay: cells; assay type: functional, cell-based, Homo sapiens; conditions: Homo sapiens, NCI-H1792;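 note: growth inhibition of human NCI-H1792 cells, read out as cell viability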
Description: SANGER: Inhibition of human NCI-H1792 cell growth in a cell viability assay.

NCI-H1993 = assay: cells; assay type: functional, cell-based, Homo sapiens; conditions: Homo sapiens, NCI-H1993;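 note: growth inhibition of the cancer cell line, assessed with a cell viability assay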
Description: SANGER: Inhibition of human NCI-H1993 cell growth in a cell viability assay.

NCI-H358 = assay: cells; assay type: functional, cell-based, Homo sapiens; conditions: Homo sapiens, NCI-H358;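 note: growth inhibition of NCI-H358 human cells, read out with a cell viability assay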
Description: SANGER: Inhibition of human NCI-H358 cell growth in a cell viability assay.

NCI-H522 = assay: cells; assay type: functional, cell-based, Homo sapiens; conditions: Homo sapiens, NCI-H522;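 note: cell viability assay measuring growth inhibition of human NCI-H522 cells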
Description: SANGER: Inhibition of human NCI-H522 cell growth in a cell viability assay.

NCI-H64 = assay: cells; assay type: functional, cell-based, Homo sapiens; conditions: Homo sapiens, NCI-H64;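 note: growth inhibition of NCI-H64 cells, read out with a cell viability assay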
Description: SANGER: Inhibition of human NCI-H64 cell growth in a cell viability assay.

NCI-H719 = assay: cells; assay type: functional, cell-based, Homo sapiens; conditions: Homo sapiens, NCI-H719;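 note: growth inhibition of the cultured cell line, read out with a viability assay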
Description: SANGER: Inhibition of human NCI-H719 cell growth in a cell viability assay.

OAW-28 = assay: cells; assay type: functional, cell-based, Homo sapiens; conditions: Homo sapiens, OAW-28;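 note: growth inhibition of OAW-28 cells, read out with a cell viability assay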
Description: SANGER: Inhibition of human OAW-28 cell growth in a cell viability assay.

RMG-I = assay: cells; assay type: functional, cell-based, Homo sapiens; conditions: Homo sapiens, RMG-I;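 note: growth inhibition of human RMG-I cells, read out with a cell viability assay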
Description: SANGER: Inhibition of human RMG-I cell growth in a cell viability assay.

RPMI-2650 = assay: cells; assay type: functional, cell-based, Homo sapiens; conditions: Homo sapiens, RPMI-2650
Description: SANGER: Inhibition of human RPMI-2650 cell growth in a cell viability assay.

SJRH30 = assay: cells; assay type: functional, cell-based, Homo sapiens; conditions: Homo sapiens, SJRH30;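 note: growth inhibition of human SJRH30 cells, read out with a cell viability assay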
Description: SANGER: Inhibition of human SJRH30 cell growth in a cell viability assay.

SK-HEP1 = assay: cells; assay type: functional, cell-based, Homo sapiens, SK-HEP-1; conditions: Homo sapiens, SK-HEP1;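 note: cell viability readout used to quantify reduction in proliferation of human SK-HEP-1 cells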
Description: SANGER: Inhibition of human SK-HEP-1 cell growth in a cell viability assay.

SK-OV-3 = assay: cells; assay type: functional, cell-based, Homo sapiens; conditions: Homo sapiens, SK-OV-3;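 note: growth inhibition of SK-OV-3 human cells, read out with a cell viability assay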
Description: SANGER: Inhibition of human SK-OV-3 cell growth in a cell viability assay.

A 172 = assay: cells; assay type: functional, cell-based, Homo sapiens; conditions: Homo sapiens, A 172;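 note: growth inhibition of A172 cells, measured with a cell viability readout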
Description: SANGER: Inhibition of human A172 cell growth in a cell viability assay.

ABC-1 = assay: cells; assay type: functional, cell-based, Homo sapiens; conditions: Homo sapiens, ABC-1;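 note: growth inhibition of human ABC-1 cells, read out by a cell viability assay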
Description: SANGER: Inhibition of human ABC-1 cell growth in a cell viability assay.

BFTC-905 = assay: cells; assay type: functional, cell-based, Homo sapiens; conditions: Homo sapiens, BFTC-905
Description: SANGER: Inhibition of human BFTC-905 cell growth in a cell viability assay.

BL-70 = assay: SANGER: Inhibition of human BL-70 cell growth in a cell viability assay.; assay type: functional, cell-based; conditions: Homo sapiens, BL-70
CAKI-1 = assay: cells; assay type: functional, cell-based, Homo sapiens; conditions: Homo sapiens, CAKI-1;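 note: growth inhibition of CAKI-1 cells, measured by a cell viability assay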
Description: SANGER: Inhibition of human CAKI-1 cell growth in a cell viability assay.

CAL-12T = assay: cells; assay type: functional, cell-based, Homo sapiens; conditions: Homo sapiens, CAL-12T;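 note: growth inhibition of human CAL-12T cells, read out with a cell viability assay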
Description: SANGER: Inhibition of human CAL-12T cell growth in a cell viability assay.

CAL-51 = assay: cells; assay type: functional, cell-based, Homo sapiens; conditions: Homo sapiens, CAL-51;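 note: human CAL-51 cell line, growth inhibition read out via a cell viability assay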
Description: SANGER: Inhibition of human CAL-51 cell growth in a cell viability assay.

CAL-85-1 = assay: cells; assay type: functional, cell-based, Homo sapiens; conditions: Homo sapiens, CAL-85-1;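 note: growth inhibition of human CAL-85-1 cells, read out with a cell viability assay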
Description: SANGER: Inhibition of human CAL-85-1 cell growth in a cell viability assay.

U-698-M = assay: cells; assay type: functional, cell-based, Homo sapiens; conditions: Homo sapiens, U-698-M
Description: SANGER: Inhibition of human U-698-M cell growth in a cell viability assay.

U-251 = assay: cells; assay type: functional, cell-based, Homo sapiens; conditions: Homo sapiens, U-251;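 note: growth inhibition of human U-251 cells, read out through a cell viability assay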
Description: SANGER: Inhibition of human U251 cell growth in a cell viability assay.

UACC-893 = assay: cells; assay type: functional, cell-based, Homo sapiens; conditions: Homo sapiens, UACC-893
Description: SANGER: Inhibition of human UACC-893 cell growth in a cell viability assay.

CHP-212 = assay: cells; assay type: functional, cell-based, Homo sapiens; conditions: Homo sapiens, CHP-212
Description: SANGER: Inhibition of human CHP-212 cell growth in a cell viability assay.

Which IC50 (Capan-2) does the source give for Cc1cc([N+](=O)[O-])ccc1NS(=O)(=O)c1cc(Cl)ccc1Cl here?
The IC50 was 8.17 µM.

What about the IC50 (Detroit 562) of the same compound?
The IC50 was 5.32 µM.

And the IC50 (EHEB)?
Its IC50 is 9.79 µM.

What about the IC50 (GP5d) of the same compound?
The IC50 was 1.14 µM.

What about the IC50 (HCC1599) of the same compound?
Its IC50 is 16.7 µM.

And the IC50 (HCC1806)?
The IC50 was 20.5 µM.

What about the IC50 (HCC38) of the same compound?
Its IC50 is 7.96 µM.

What about the IC50 (HCT-15) of the same compound?
Its IC50 is 6.87 µM.

And the IC50 (HT-1376)?
The IC50 was 3.81 µM.

What about the IC50 (IM-9) of the same compound?
The IC50 was 14.1 µM.

What about the IC50 (IST-SL2) of the same compound?
The IC50 was 8.24 µM.

And the IC50 (K052)?
The IC50 was 14.2 µM.

And the IC50 (KOSC-2)?
The IC50 was > 32 µM.

And the IC50 (KP-N-YN)?
The IC50 was 10.2 µM.

What about the IC50 (KYSE-150 cell line) of the same compound?
Its IC50 is 5.06 µM.

What about the IC50 (LP-1) of the same compound?
Its IC50 is 10.6 µM.

And the IC50 (M059J)?
The IC50 was 5.94 µM.

What about the IC50 (MDA-MB-134-VI) of the same compound?
Its IC50 is > 32 µM.

And the IC50 (ME-180)?
The IC50 was 2.82 µM.

What about the IC50 (MHH-ES-1) of the same compound?
The IC50 was 6.43 µM.

What about the IC50 (MIA PaCa-2) of the same compound?
The IC50 was 0.601 µM.

What about the IC50 (NCI-H1792) of the same compound?
The IC50 was 8.53 µM.

What about the IC50 (NCI-H1993) of the same compound?
Its IC50 is 17.2 µM.

What about the IC50 (NCI-H358) of the same compound?
The IC50 was 6.31 µM.

And the IC50 (NCI-H522)?
Its IC50 is 1.4 µM.

What about the IC50 (NCI-H64) of the same compound?
Its IC50 is > 32 µM.

What about the IC50 (NCI-H719) of the same compound?
Its IC50 is > 32 µM.

What about the IC50 (OAW-28) of the same compound?
Its IC50 is 24.7 µM.

What about the IC50 (RMG-I) of the same compound?
The IC50 was 11.5 µM.

What about the IC50 (RPMI-2650) of the same compound?
The IC50 was 1.98 µM.

What about the IC50 (SJRH30) of the same compound?
The IC50 was 2.07 µM.

And the IC50 (SK-HEP1)?
Its IC50 is 2.88 µM.

And the IC50 (SK-OV-3)?
The IC50 was 9.13 µM.

And the IC50 (A 172)?
The IC50 was 5.91 µM.

What about the IC50 (ABC-1) of the same compound?
The IC50 was 3.41 µM.

And the IC50 (BFTC-905)?
Its IC50 is 3.65 µM.

What about the IC50 (BL-70) of the same compound?
Its IC50 is 5.1 µM.

What about the IC50 (CAKI-1) of the same compound?
The IC50 was 13.2 µM.

And the IC50 (CAL-12T)?
Its IC50 is 1.02 µM.

What about the IC50 (CAL-51) of the same compound?
Its IC50 is 2.75 µM.

What about the IC50 (CAL-85-1) of the same compound?
The IC50 was 3.61 µM.

And the IC50 (U-698-M)?
The IC50 was 1.81 µM.

What about the IC50 (U-251) of the same compound?
The IC50 was 2.17 µM.

And the IC50 (UACC-893)?
The IC50 was 3.06 µM.

And the IC50 (CHP-212)?
Its IC50 is 2.58 µM.

Oc1ccc2ccccc2c1SSc1c(O)ccc2ccccc12 was tested. Which IC50 (Capan-2) did it give?
Its IC50 is > 32 µM.

What about the IC50 (Detroit 562) of the same compound?
Its IC50 is > 32 µM.

And the IC50 (EHEB)?
The IC50 was 8.56 µM.

What about the IC50 (GP5d) of the same compound?
Its IC50 is > 32 µM.

And the IC50 (HCC1599)?
The IC50 was > 32 µM.

What about the IC50 (HCC1806) of the same compound?
The IC50 was > 32 µM.

And the IC50 (HCC38)?
The IC50 was > 32 µM.

And the IC50 (HCT-15)?
The IC50 was > 32 µM.

And the IC50 (HT-1376)?
Its IC50 is > 32 µM.

And the IC50 (IM-9)?
Its IC50 is 7.93 µM.

What about the IC50 (IST-SL2) of the same compound?
The IC50 was 20.7 µM.

And the IC50 (K052)?
The IC50 was > 32 µM.

And the IC50 (KOSC-2)?
Its IC50 is > 32 µM.

What about the IC50 (KP-N-YN) of the same compound?
The IC50 was > 32 µM.

And the IC50 (KYSE-150 cell line)?
The IC50 was > 32 µM.

And the IC50 (LP-1)?
The IC50 was 30.5 µM.

What about the IC50 (M059J) of the same compound?
Its IC50 is > 32 µM.

What about the IC50 (MDA-MB-134-VI) of the same compound?
Its IC50 is > 32 µM.

And the IC50 (ME-180)?
Its IC50 is > 32 µM.

And the IC50 (MHH-ES-1)?
The IC50 was > 32 µM.

And the IC50 (MIA PaCa-2)?
Its IC50 is 18.1 µM.

What about the IC50 (NCI-H1792) of the same compound?
Its IC50 is > 32 µM.

What about the IC50 (NCI-H1993) of the same compound?
Its IC50 is > 32 µM.

And the IC50 (NCI-H358)?
The IC50 was > 32 µM.

And the IC50 (NCI-H522)?
The IC50 was > 32 µM.

And the IC50 (NCI-H64)?
Its IC50 is > 32 µM.

What about the IC50 (NCI-H719) of the same compound?
Its IC50 is 12.9 µM.

What about the IC50 (OAW-28) of the same compound?
The IC50 was > 32 µM.

And the IC50 (RMG-I)?
The IC50 was > 32 µM.

And the IC50 (RPMI-2650)?
Its IC50 is > 32 µM.

And the IC50 (SJRH30)?
Its IC50 is > 32 µM.

And the IC50 (SK-HEP1)?
Its IC50 is > 32 µM.

And the IC50 (SK-OV-3)?
Its IC50 is > 32 µM.

And the IC50 (A 172)?
Its IC50 is > 32 µM.

What about the IC50 (ABC-1) of the same compound?
Its IC50 is > 32 µM.

And the IC50 (BFTC-905)?
Its IC50 is 5.15 µM.

What about the IC50 (BL-70) of the same compound?
The IC50 was 2.04 µM.

And the IC50 (CAKI-1)?
Its IC50 is > 32 µM.

And the IC50 (CAL-12T)?
Its IC50 is 5.64 µM.

What about the IC50 (CAL-51) of the same compound?
The IC50 was 3.55 µM.

What about the IC50 (CAL-85-1) of the same compound?
The IC50 was 7.37 µM.

And the IC50 (U-698-M)?
Its IC50 is 3.24 µM.

What about the IC50 (U-251) of the same compound?
Its IC50 is > 32 µM.

What about the IC50 (UACC-893) of the same compound?
Its IC50 is > 32 µM.

And the IC50 (CHP-212)?
Its IC50 is 9.1 µM.
